{"source": "patent EP0657176B1", "about": "“Composition containing a water-insoluble or slightly water-soluble compound with enhanced water-solubility” (priority 1993, dated 1995)", "key": {"[1]": {"test": "Water-solubility of testosterone alone or combined with β-CyD-CH2CH(OH)-COONa or β-CyD (Example 15)", "assay_type": "physicochemical", "settings": "testosterone about 4 mg, β-CyD-CH2CH(OH)-COONa or β-CyD 75 mg in water 5 ml, shaken at 25°C for 8 hours; ultraviolet spectrophotometer; read-out: solubilities of testosterone", "description": "The same operations were carried out using β-CyD instead of β-CyD-CH2CH(OH)-COONa or using testosterone alone. The concentration of testosterone dissolved in the resulting filtrate was determined with an ultraviolet spectrophotometer (Shimadzu Corp., UV-240)."}, "[2]": {"test": "Water-solubility of testosterone alone or combined with α-CyD-G2-COONa or α-CyD (Example 14)", "assay_type": "physicochemical", "settings": "testosterone about 4 mg, α-CyD-G2-COONa or α-CyD 75 mg in water 5 ml, shaken at 25°C for 8 hours; ultraviolet spectrophotometer; read-out: solubilities of testosterone", "description": "The same operations were carried out using α-cyclodextrin (α-CyD) instead of α-CyD-G2-COONa or using testosterone alone. The concentration of testosterone dissolved in the resulting filtrate was determined with an ultraviolet spectrophotometer (Shimadzu Corp., UV-240)."}, "[3]": {"test": "Water-solubility of testosterone alone or combined with β-CyD-G2-COONa or β-CyD (Example 8)", "protocol": "(§4) Sodium6-O-cyclomaltoheptaosyl-(6→1)-O-α-D-glucosyl-(4→1)-O-α-D-glucuronate (β-CyD-G2-COONa)(75 mg) was dissolved in water (5 ml)."}, "[4]": {"test": "Water-solubility of phenytoin alone or combined with β-CyD-G2-COONa or β-CyD (Example 9)", "protocol": "as §4"}, "[5]": {"settings": "water, 8 h", "description": "The results are in Table 10. Table 10"}, "[6]": {"test": "Water-solubility of indomethacin alone or combined with β-CyD-G2-COONa or β-CyD (Example 11)", "description": "The results are in Table 11. Table 11"}, "[7]": {"test": "Water-solubility of acetohexamide alone or combined with β-CyD-G2-COONa or β-CyD (Example 13)", "assay_type": "physicochemical", "settings": "with β-CyD-G2-COONa or β-CyD 1:1 (molar ratio), as Example 12, powder 100 mg + water 1 ml; alone: 25 °C, 6 hours; ultraviolet spectrophotometer; read-out: solubilities of acetohexamide", "protocol": "Separately, powder was obtained by the same operation except using β-CyD instead of the above β-CyD-G2-COONa. Water (1 ml) was added to each powder (100 mg) thus obtained to dissolve it. On the other hand, acetohexamide alone was added to water, and the mixture was vigorously shaken at 25 °C for 6 hours and filtered through a membrane filter of 0.22 µm. The acetohexamide in the above filtrate was determined with an ultraviolet spectrophotometer (Shimadzu Corp., UV-240)."}, "[8]": {"test": "Water-solubility of clofibrate alone or combined with β-CyD-G2-COONa or β-CyD (Example 5)", "assay_type": "physicochemical", "settings": "in water; with β-CyD-G2-COONa or β-CyD 1:2 (molar ratio), lyophilized powder; as Example 1; read-out: solubilities of clofibrate", "description": "(§1) The antineoplastic agent 6-O-(N-chloroacetylcarbamoyl)fumagillol (100 mg) was dissolved in ethanol (4 ml). […] The aqueous solution was added to the ethanol solution and mixed with it with stirring. The resulting solution was lyophilized in vacuo to give powder. Water (1 ml) was added to the powder (100 mg) to obtain a homogeneous aqueous solution, i.e., a composition of the present invention.\n(§2) On the other hand, the antineoplastic agent alone was added to water, and the mixture was vigorously shaken at 25 °C for 4 hours and filtered through a membrane filter of 0.22 µm.\n(§3) The antineoplastic agent in the above homogeneous aqueous solution and filtrate was determined by high performance liquid chromatography (HPLC). As a result, the solubilities in Table 1 were obtained.\nLikewise, lyophilized powder was obtained from clofibrate and β-cyclodextrin (β-CyD) (clofibrate : β-CyD = 1:2 (molar ratio)). […]"}, "[9]": {"test": "Water-solubility of the antifungal agent alone or combined with β-CyD-G2-COONa or β-CyD (Example 4)", "assay_type": "physicochemical", "settings": "triazolone antifungal agent in water; with β-CyD-G2-COONa or β-CyD 1:2 (molar ratio), lyophilized powder; as Example 1; read-out: solubilities of the antifungal agent", "description": "as §1, §2, §3\nLikewise, lyophilized powder was obtained from the antifungal agent and β-cyclodextrin (β-CyD)(the antifungal agent : β-CyD = 1:2 (molar ratio)). […]"}, "[10]": {"test": "Water-solubility of flufenamic acid alone or combined with β-CyD-G2-COONa or β-CyD (Example 7)", "assay_type": "physicochemical", "settings": "flufenamic acid about 6 mg; as Example 6 (cyclodextrin 75 mg in water 5 ml, 25°C, 8 hours)", "protocol": "as §4"}, "[11]": {"test": "Water-solubility of griseofulvin alone or combined with β-CyD-G2-COONa or β-CyD (Example 12, milling, spectrophotometry)", "assay_type": "physicochemical", "settings": "with β-CyD-G2-COONa or β-CyD 1:1 (molar ratio), shaken in tumbler pulverizer with a small amount of water, lyophilized, powder 100 mg + water 1 ml, alone: 25°C, 6 hours, read-out: solubilities of griseofulvin", "protocol": "Water (1 ml) was added to each powder (100 mg) thus obtained to obtain an aqueous solution thereof. On the other hand, griseofulvin alone was added to water, and the mixture was vigorously shaken at 25°C for 6 hours and filtered through a membrane filter of 0.22 µm.\nThe griseofulvin in the above filtrate was determined by spectrophotometry (Shimadzu Corp., UV-240 spectrophotometer)."}}, "data": [{"compound": "C[C@]12CC[C@H]3[C@@H](CCC4=CC(=O)CC[C@@]43C)[C@@H]1CC[C@@H]2O", "note": "[Testosterone alone, testosterone]", "values": [{"measurement": "solubility at 8 h", "setting": "[1]", "result": 29, "unit": "µg/mL"}, {"measurement": "solubility at 8 h", "setting": "[2]", "result": 29, "unit": "µg/mL"}, {"measurement": "solubility at 8 h", "setting": "[3]", "result": 29, "unit": "µg/mL"}]}, {"compound": "O=C1NC(=O)C(c2ccccc2)(c2ccccc2)N1", "note": "[Phenytoin alone, phenytoin]", "values": [{"measurement": "solubility at 8 h", "setting": "[4]", "result": 27, "unit": "µg/mL"}]}, {"compound": "vitamin K2 [Vitamin K2 alone]", "values": [{"measurement": "solubilities of vitamin K2", "setting": "[5]", "result": 0.0005, "unit": "µg/mL"}]}, {"compound": "COc1ccc2c(c1)c(CC(=O)O)c(C)n2C(=O)c1ccc(Cl)cc1", "note": "[Indomethacin alone, indomethacin]", "values": [{"measurement": "solubility at 8 h", "setting": "[6]", "result": 23, "unit": "µg/mL"}]}, {"compound": "CC(=O)c1ccc(S(=O)(=O)NC(=O)NC2CCCCC2)cc1", "note": "[Acetohexamide alone, acetohexamide]", "values": [{"measurement": "solubility", "setting": "[7]", "result": 28.1, "unit": "µg/mL"}]}, {"compound": "CCOC(=O)C(C)(C)Oc1ccc(Cl)cc1", "note": "[Clofibrate agent alone, clofibrate]", "values": [{"measurement": "solubility", "setting": "[8]", "result": 82, "unit": "µg/mL"}]}, {"compound": "C[C@@H](n1ncn(-c2ccc(OCC(F)(F)C(F)F)cc2)c1=O)[C@](O)(Cn1cncn1)c1ccc(F)cc1F", "note": "[Antifungal agent alone, 2-[(1R,2R)-2-(2,4-difluorophenyl)-2-hydroxy-1-methyl-3-(1H-1,2,4-triazol-1-yl)propyl]-4-[4-(2,2,3,3-tetrafluoropropoxy)phenyl]-3-(2H,4H)-1,2,4-triazolone]", "values": [{"measurement": "solubility", "setting": "[9]", "result": 5, "unit": "µg/mL"}]}, {"compound": "O=C(O)c1ccccc1Nc1cccc(C(F)(F)F)c1", "note": "[Flufenamic acid alone, flufenamic acid]", "values": [{"measurement": "solubilities of flufenamic acid", "setting": "[10]", "result": 0.074, "unit": "mg/mL"}]}, {"compound": "COC1=CC(=O)C[C@@H](C)[C@]12Oc1c(Cl)c(OC)cc(OC)c1C2=O", "note": "[Griseofulvin alone, griseofulvin]", "values": [{"measurement": "solubility", "setting": "[11]", "result": 23, "unit": "µg/mL"}]}]}
